# Measured values: patent US8802674B2, “Aminopyrimidine derivatives as LRRK2 modulators” (Genentech, Inc., priority 2011, dated 2014)
# Target: LRRK2 (Homo sapiens (Human), UniProt Q5S007, G2019S)
# Test: In Vitro LRRK2 LabChip Assay
# Format: biochemical
# Details: Table 4
# Procedure: In Vitro LRRK2 LabChip Assay
# This assay was used to determine a compound's potency in inhibiting activity of LRRK2 by determining, Kiapp, IC50, or percent inhibition values. In a polypropylene plate, LRRK2, fluorescently-labeled peptide substrate, ATP and test compound were incubated together. Using a LabChip 3000 (Caliper Life Sciences), after the reaction the substrate was separated by capillary electrophoresis into two populations: phosphorylated and unphosphorylated. The relative amounts of each were quantitated by fluorescence intensity. LRRK2 Ki was determined according to the equation: Y=V0*(1−((x+Ki*(1+S/Km)+Et)/(2*Et)−(((x+Ki*(1+S/Km)+Et)^2−(4*Et*x))^0.5)/(2*Et))). Ki values in Table 4 and elsewhere herein are shown in μM.
# Assay conditions and materials used were as follows:
# Compound Plate Preparation:
# For serial dilutions, 34.6 μl DMSO was added to columns 3-24. For the assay controls, 37.5 μl DMSO was added to columns 1 and 2 of rows A and P. a,d and 50 μl 25 μM G-028831 (Staurosporine) was added to columns 1 and 2, row B. For the samples: to start at 100 μM, 37.5 μl DMSO was to columns 1 and 2, then 12.5 μl 10 mM compound; to start at 10 μM, 78 μl DMSO was added to columns 1 & 2, then 2 μl 10 mM compound; and to start at 1 μM, 25 μM compound (2 μl 10 mM cmpd+798 μl DMSO) was added to empty columns 1 and 2. A Precision instrument was used to perform 1:3.16 serial dilutions (“PLK_BM_serial_halflog”).
# ATP was diluted to 282.1 μM in Complete Kinase Buffer (final concentration was 130 μM).
# Total and Blank Preparation:
# In Complete Reaction Buffer, substrate was diluted to 4 μM. Equal volumes of Complete Reaction Buffer and 4 μM substrate were combined to obtain the blank. Equal volumes of Complete Reaction Buffer and 4 μM substrate were combined and to the combined solution was added 2× final LRRK2 concentration.
# To a 50 μl polypropylene plate, 5 μl/well buffer/substrate was added by hand to Blank wells. A Biomek FX was used to start the kinase reaction (“PLK SAR 23 ATP”). The following were added to the appropriate wells:
# 5 μl/well compound/ATP in Assay Plate;
# 5 μl/well kinase/substrate in Assay Plate;
# The plate was incubated for 2 hours in the dark. Biomek FX was used to stop the kinase reaction (“PLK Stop”), and 10 μl/well Stop solution was added to the Assay Plate. Results were read on the LabChip 3000.
# The LabChip 3000 was run using the job “LRRK2IC50” with the following job settings: […]
# LRRK2, sequence (Q5S007 970-2527 G2019S limits assumed): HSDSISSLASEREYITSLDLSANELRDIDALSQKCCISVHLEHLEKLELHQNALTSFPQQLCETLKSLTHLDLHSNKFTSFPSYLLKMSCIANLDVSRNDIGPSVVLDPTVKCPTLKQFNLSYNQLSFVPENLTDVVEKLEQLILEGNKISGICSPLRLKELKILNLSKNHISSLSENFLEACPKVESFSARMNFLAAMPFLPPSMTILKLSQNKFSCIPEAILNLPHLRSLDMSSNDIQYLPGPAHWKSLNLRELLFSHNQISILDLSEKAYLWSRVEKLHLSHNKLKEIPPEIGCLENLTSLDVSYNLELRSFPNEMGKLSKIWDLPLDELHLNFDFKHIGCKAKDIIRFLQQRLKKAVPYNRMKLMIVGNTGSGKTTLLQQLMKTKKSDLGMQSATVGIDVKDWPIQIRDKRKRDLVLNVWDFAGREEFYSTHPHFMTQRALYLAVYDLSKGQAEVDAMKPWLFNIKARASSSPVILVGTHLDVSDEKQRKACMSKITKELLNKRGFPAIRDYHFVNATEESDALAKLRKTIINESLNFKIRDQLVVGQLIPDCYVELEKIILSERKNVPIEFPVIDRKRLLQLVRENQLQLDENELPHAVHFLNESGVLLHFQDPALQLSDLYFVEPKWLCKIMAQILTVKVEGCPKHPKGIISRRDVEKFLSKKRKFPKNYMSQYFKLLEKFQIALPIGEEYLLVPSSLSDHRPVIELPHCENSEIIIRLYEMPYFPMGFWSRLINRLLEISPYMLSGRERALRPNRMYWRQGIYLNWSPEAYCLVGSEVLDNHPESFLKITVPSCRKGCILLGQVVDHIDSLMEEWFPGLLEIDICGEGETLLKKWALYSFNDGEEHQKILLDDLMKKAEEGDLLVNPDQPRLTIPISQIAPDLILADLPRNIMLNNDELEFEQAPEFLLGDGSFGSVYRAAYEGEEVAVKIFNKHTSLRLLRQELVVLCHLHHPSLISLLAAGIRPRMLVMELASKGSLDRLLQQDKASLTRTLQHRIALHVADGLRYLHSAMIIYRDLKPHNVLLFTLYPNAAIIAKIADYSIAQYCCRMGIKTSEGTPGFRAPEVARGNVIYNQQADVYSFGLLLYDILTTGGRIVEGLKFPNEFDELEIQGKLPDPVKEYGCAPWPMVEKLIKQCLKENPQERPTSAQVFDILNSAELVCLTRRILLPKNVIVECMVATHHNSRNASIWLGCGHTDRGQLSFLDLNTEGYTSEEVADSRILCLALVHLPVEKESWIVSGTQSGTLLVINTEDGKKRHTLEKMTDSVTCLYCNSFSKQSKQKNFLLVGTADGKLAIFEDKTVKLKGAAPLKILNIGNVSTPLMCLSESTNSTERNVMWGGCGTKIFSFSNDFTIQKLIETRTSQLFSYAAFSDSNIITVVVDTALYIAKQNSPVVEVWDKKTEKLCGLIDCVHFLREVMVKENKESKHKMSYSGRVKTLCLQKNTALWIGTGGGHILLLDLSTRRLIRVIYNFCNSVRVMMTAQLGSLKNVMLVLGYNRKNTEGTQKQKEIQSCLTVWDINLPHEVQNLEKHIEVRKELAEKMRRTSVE
row,Ki [nM],SMILES
1,2.4,"CNc1nc(Nc2ccc(C(=O)N3CCC(C(C)(C)O)CC3)cc2OC)ncc1Br [Example 71, [4-(5-Bromo-4-methylamino-pyrimidin-2-ylamino)-3-methoxy-phenyl]-[4-(l-hydroxy-1-methyl-ethyl)-piperidin-1-yl]-methanone]"
2,6.4,"CNc1nc(Nc2ccc(C(=O)N3CCC(C(F)(F)F)C3)cc2OC)ncc1Br (centres unmarked) [Example 72, [4-(5-Bromo-4-methylamino-pyrimidin-2-ylamino)-3-methoxy-phenyl]-(3-trifluoromethyl-pyrrolidin-1-yl)-methanone]"
3,4.1,"CNc1nc(Nc2ccc(C(=O)N3CCC(C#N)CC3)cc2OC)ncc1Br [Example 73, l-[4-(5-Bromo-4-methylamino-pyrimidin-2-ylamino)-3-methoxy-benzoyl]-piperidine-4-carbonitrile]"
4,2.3,CNc1nc(Nc2ccc(C(=O)N3CCN(C4CCC4)CC3)cc2OC)ncc1Br [Example 74]
5,3.8,"CNc1nc(Nc2ccc(C(=O)N3CCN(CC(F)(F)F)CC3)cc2OC)ncc1Br [Example 75, [4-(5-Bromo-4-methylamino-pyrimidin-2-ylamino)-3-methoxy-phenyl]-[4-(2,2,2-trifluoro-ethyl)-piperazin-1-yl]-methanone]"
6,2.4,"CNc1nc(Nc2ccc(C(=O)N3CCC(OC)CC3)cc2OC)ncc1Br [Example 76, [4-(5-Bromo-4-methylamino-pyrimidin-2-ylamino)-3-methoxy-phenyl]-(4-methoxy-piperidin-1-yl)-methanone]"
7,5.1,"CNc1nc(Nc2ccc(C(=O)N3CC[C@@H](O)C3)cc2OC)ncc1Br [Example 77, [4-(5-Bromo-4-methylamino-pyrimidin-2-ylamino)-3-methoxy-phenyl]-((R)-3-hydroxy-pyrrolidin-1-yl)-methanone]"
8,8,"CNc1nc(Nc2ccc(C(=O)N3CCN(C4COC4)CC3)cc2OC)ncc1Br [Example 78, [4-(5-Bromo-4-methylamino-pyrimidin-2-ylamino)-3-methoxy-phenyl]-(4-oxetan-3-yl-piperazin-1-yl)-methanone]"
9,15.6,"CNc1nc(Nc2ccc(C(=O)N3CCOCC3)cc2OC(C)C)ncc1Cl [Example 79, [4-(5-Chloro-4-methylamino-pyrimidin-2-ylamino)-3-isopropoxy-phenyl]-morpholin-4-yl-methanone]"
10,2.7,"COc1cc(C(=O)N2CCOCC2)ccc1Nc1ncc(Cl)c(NCC2CC2)n1 [Example 80, {4-[5-Chloro-4-(cyclopropylmethyl-amino)-pyrimidin-2-ylamino]-3-methoxy-phenyl}-morpholin-4-yl-methanone]"
11,1.5,"COc1cc(C(=O)N2CCOCC2)ccc1Nc1ncc(Cl)c(NC2CCC2)n1 [Example 81, [4-(5-Chloro-4-cyclobutylamino-pyrimidin-2-ylamino)-3-methoxy-phenyl]-morpholin-4-yl-methanone]"
12,28.9,"CNc1nc(Nc2ccc(C(=O)N3CCOCC3)cc2O)ncc1Cl [Example 82, [4-(5-Chloro-4-methylamino-pyrimidin-2-ylamino)-3-hydroxy-phenyl]-morpholin-4-yl-methanone]"
13,2.5,"CCNc1nc(Nc2cc(F)c(C(=O)N3CCOCC3)cc2OC)ncc1Cl [Example 87, [4-(5-Chloro-4-ethylamino-pyrimidin-2-ylamino)-2-fluoro-5-methoxy-phenyl]-morpholin-4-yl-methanone]"
14,5,"COc1cc(C(=O)N2CC(N3CCOCC3)C2)ccc1Nc1ncc(Br)c(OC)n1 [Example 88, [4-(5-Bromo-4-methoxy-pyrimidin-2-ylamino)-3-methoxy-phenyl]-(3-morpholin-4-yl-azetidin-1-yl)-methanone]"
15,2.7,"CNc1nc(Nc2ccc(C(=O)N3CC(N4CCOCC4)C3)cc2OC)ncc1Cl [Example 89, [4-(5-Chloro-4-methylamino-pyrimidin-2-ylamino)-3-methoxy-phenyl]-(3-morpholin-4-yl-azetidin-1-yl)-methanone]"
16,2.4,"COc1cc(C(=O)N2CCOCC2)ccc1Nc1ncc(Cl)c(NC2(C)CCC2)n1 [Example 91, {4-[5-Chloro-4-(1-methyl-cyclobutylamino)-pyrimidin-2-ylamino]-3-methoxy-phenyl}-morpholin-4-yl-methanone]"

row,Ki [nM],SMILES
1,14.1,"COc1cc(C(=O)N2CCOCC2)ccc1Nc1ncc(Cl)c(NCC2CCOC2)n1 (centres unmarked) [Example 93, (4-{5-Chloro-4-[(tetrahydro-furan-3-ylmethyl)-amino]-pyrimidin-2-ylamino}-3-methoxy-phenyl)-morpholin-4-yl-methanone]"
2,2.1,"COc1cc(C(=O)N2CCOCC2)ccc1Nc1ncc(I)c(OC)n1 [Example 101, [4-(5-Iodo-4-methoxy-pyrimidin-2-ylamino)-3-methoxy-phenyl]-morpholin-4-yl-methanone]"
3,89.5,"CNc1nc(Nc2ccc(C(=O)N3CCOCC3)cc2OC)ncc1C1CC1 [Example 103, [4-(5-Cyclopropyl-4-methylamino-pyrimidin-2-ylamino)-3-methoxy-phenyl]-morpholin-4-yl-methanone]"
4,1.8,"COc1cc(C(=O)N2CCOCC2)ccc1Nc1ncc(Cl)c(NCCC2CC2)n1 [Example 104, {4-[5-Chloro-4-(2-cyclopropyl-ethylamino)-pyrimidin-2-ylamino]-3-methoxy-phenyl}-morpholin-4-yl-methanone]"
5,9.4,"COCCNc1nc(Nc2ccc(C(=O)N3CCOCC3)cc2OC)ncc1Cl [Example 105, {4-[5-Chloro-4-(2-methoxy-ethylamino)-pyrimidin-2-ylamino]-3-methoxy-phenyl}-morpholin-4-yl-methanone]"
6,2,"[2H]C1([2H])OCCN(C(=O)c2ccc(Nc3ncc(Br)c(OC)n3)c(OC)c2)[C@@H]1C [Example 107, [4-(5-Bromo-4-methoxy-pyrimidin-2-ylamino)-3-methoxy-phenyl]-((R)-2,2-di-deutero-3-methyl-morpholin-4-yl)-methanone]"
7,9.6,"COCCNc1nc(Nc2ccc(C(=O)N3CCOCC3)cc2OCC(F)(F)F)ncc1Cl [Example 109, [4-[5-Chloro-4-(2-methoxy-ethylamino)-pyrimidin-2-ylamino]-3-(2,2,2-trifluoro-ethoxy)-phenyl]-morpholin-4-yl-methanone]"
8,6,"CNc1nc(Nc2ccc(C(=O)N3CCOCC3)cc2Cl)ncc1Cl [Example 115, [3-Chloro-4-(5-chloro-4-methylamino-pyrimidin-2-ylamino)-phenyl]-morpholin-4-yl-methanone]"
9,259,"CNc1nc(Nc2ccc(C(=O)N3CCOCC3)cc2OC)ncc1OC [Example 133, (3-methoxy-4-(5-methoxy-4-(methylamino)pyrimidin-2-ylamino)phenyl) (morpholino) methanone]"
10,5.7,"COCCOc1nc(Nc2ccc(C(=O)N3CCOCC3)cc2OC)ncc1Br [Example 139, {4-[5-Bromo-4-(2-methoxy-ethoxy)-pyrimidin-2-ylamino]-3-methoxy-phenyl}-morpholin-4-yl-methanone]"
11,11.8,"CNc1nc(Nc2cc(OC)c(C(=O)N(C)C)cc2Cl)ncc1Cl [Example 140, 5-Chloro-4-(5-chloro-4-methylamino-pyrimidin-2-ylamino)-2-methoxy-N,N-dimethyl-benzamide]"
12,9.3,"CNc1nc(Nc2cc(OC)c(C(N)=O)cc2Cl)ncc1Cl [Example 141, 5-Chloro-4-(5-chloro-4-methylamino-pyrimidin-2-ylamino)-2-methoxy-benzamide]"
13,11,"CNc1nc(Nc2cc(OC)c(C(=O)NCCO)cc2Cl)ncc1Cl [Example 142, 5-Chloro-4-(5-chloro-4-methylamino-pyrimidin-2-ylamino)-N-(2-hydroxy-ethyl)-2-methoxy-benzamide]"
14,11.3,"CNC(=O)c1cc(Cl)c(Nc2ncc(Cl)c(NC)n2)cc1OC [Example 144, 5-Chloro-4-(5-chloro-4-methylamino-pyrimidin-2-ylamino)-2-methoxy-N-methyl-benzamide]"
15,7.8,"CNc1nc(Nc2cc(OC)c(C(=O)N3CCC(F)(F)CC3)cc2Cl)ncc1Cl [Example 146, [5-Chloro-4-(5-chloro-4-methylamino-pyrimidin-2-ylamino)-2-methoxy-phenyl]-(4,4-difluoro-piperidin-1-yl)-methanone]"

row,SMILES,Ki [nM]
1,"COc1nc(Nc2ccc(C(=O)N3CCOCC3)cc2OC2CCC2)ncc1Br [Example 85, [4-(5-Bromo-4-methoxy-pyrimidin-2-ylamino)-3-cyclobutoxy-phenyl]-morpholin-4-yl-methanone]",2.8
